Data on 18 molecules can be found in patent publication US20130303509A1, “NAMPT INHIBITORS” (AbbVie Inc., priority 2012, published 2013).

A word on the IC50: it is the midpoint of a concentration-inhibition curve. A lower IC50 goes with inhibition by little substance.

Test system in one test: not given
Test: not given
To be noted: model of T-cell mediated autoimmune disorders; cited from earlier work.
For `O=C(/C=C/c1cccnc1)NCCCCC1CCN(C(=O)c2ccccc2)CC1` [FK866], the “manifestations of experimental autoimmune encephalomyelitis” value is given as “ameliorated the manifestations”.

For a further test, the system named is PC3 cells. The experiment in a line: NAMPT Cell Proliferation Assay. It is filed as cell-based. To be noted: Homo sapiens, PC-3, 120 h, 5 days incubation, cell viability by Cell Titer Glo. An outline of the steps: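 Five-day CellTiter-Glo viability readout in PC3 cells grown in RPMI/10% heat-inactivated FBS. Compounds added after overnight attachment as a 10-fold dilution series, […]. Percent inhibition fitted to sigmoidal dose-response to derive IC50.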
On the technique in general: In ATP-based viability assays light output follows the ATP content of the culture.
`O=C(NC1CN(c2cccnn2)C1)c1ccc(C2CCN(C(=O)C3CC3)CC2)s1` [Example 856, 5-[1-(cyclopropylcarbonyl)piperidin-4-yl]-N-[1-(pyridazin-3-yl)azetidin-3-yl]thiophene-2-carboxamide] gave a half-inhibitory concentration (IC50) of 729 nM. Still for that read-out and setting: for `O=C(Nc1ccc(C2(F)CCN(C(=O)c3ccccc3F)CC2)cc1)C1CN(c2cccnn2)C1` [Example 857, N-{4-[4-fluoro-1-(2-fluorobenzoyl)piperidin-4-yl]phenyl}-1-(pyridazin-3-yl)azetidine-3-carboxamide] the value was 2.52 nM; for `CC(C)C(=O)N1CCC(c2ccc(NC(=O)C3CN(c4cccnn4)C3)c(F)c2)CC1` [Example 858, N-{2-fluoro-4-[1-(2-methylpropanoyl)piperidin-4-yl]phenyl}-1-(pyridazin-3-yl)azetidine-3-carboxamide], 4.36 nM. Same read-out and setting: for `CC(C)(C)C(=O)N1CCC(c2ccc(NC(=O)C3CN(c4cccnn4)C3)c(F)c2)CC1` [Example 859, N-{4-[1-(2,2-dimethylpropanoyl)piperidin-4-yl]-2-fluorophenyl}-1-(pyridazin-3-yl)azetidine-3-carboxamide] the value was 2.7 nM; for `O=C(Nc1ccc(C2CCN(C(=O)C3CC3)CC2)cc1F)C1CN(c2cccnn2)C1` [Example 860, N-{4-[1-(cyclopropylcarbonyl)piperidin-4-yl]-2-fluorophenyl}-1-(pyridazin-3-yl)azetidine-3-carboxamide], 10 nM; for `CC1(C(=O)N2CCC(c3ccc(NC(=O)C4CN(c5cccnn5)C4)c(F)c3)CC2)CC1` [Example 861, N-(2-fluoro-4-{1-[(1-methylcyclopropyl)carbonyl]piperidin-4-yl}phenyl)-1-(pyridazin-3-yl)azetidine-3-carboxamide], 7.58 nM. `O=C(Nc1ccc(C2CCN(C(=O)CC3CC3)CC2)cc1F)C1CN(c2cccnn2)C1` [Example 862, N-{4-[1-(cyclopropylacetyl)piperidin-4-yl]-2-fluorophenyl}-1-(pyridazin-3-yl)azetidine-3-carboxamide] showed an IC50 of 8.49 nM. The molecule `O=C(Nc1ccc(C2(F)CCN(C(=O)c3ccccc3)CC2)cc1)C1CN(c2cccnn2)C1` [Example 863, N-[4-(1-benzoyl-4-fluoropiperidin-4-yl)phenyl]-1-(pyridazin-3-yl)azetidine-3-carboxamide] displayed a half-inhibitory concentration (IC50) of 5.67 nM.

The molecule `CC(C)(C)C(=O)N1CCC(F)(c2ccc(NC(=O)C3CN(c4cccnn4)C3)cc2)CC1` [Example 864, N-{4-[1-(2,2-dimethylpropanoyl)-4-fluoropiperidin-4-yl]phenyl}-1-(pyridazin-3-yl)azetidine-3-carboxamide] had an IC50 of 5.29 nM. This IC50 and that of the molecule before are within 1.5-fold of each other. Molecule `COCCn1nc(C(C)(C)C)cc1-c1ccc(NC(=O)C2CN(c3cccnn3)C2)cc1` [Example 865, N-{4-[3-tert-butyl-1-(2-methoxyethyl)-1H-pyrazol-5-yl]phenyl}-1-(pyridazin-3-yl)azetidine-3-carboxamide] returned a concentration for half-maximal inhibition (IC50) of 4.06 nM. Same read-out and setting: for `CCCCn1nc(C(C)(C)C)cc1-c1ccc(NC(=O)C2CN(c3cccnn3)C2)cc1` [Example 866, N-[4-(1-butyl-3-tert-butyl-1H-pyrazol-5-yl)phenyl]-1-(pyridazin-3-yl)azetidine-3-carboxamide] the value was 7.92 nM; for `CC(C)(C)c1cc(-c2ccc(NC(=O)C3CN(c4cccnn4)C3)cc2)n(CC2CCOCC2)n1` [Example 867, N-{4-[3-tert-butyl-1-(tetrahydro-2H-pyran-4-ylmethyl)-1H-pyrazol-5-yl]phenyl}-1-(pyridazin-3-yl)azetidine-3-carboxamide], 7.84 nM. Same read-out and setting: for `O=C(Nc1ccc(C2CCN(C(=O)c3ccccc3F)CC2)cc1F)C1CN(c2ccnnc2)C1` [Example 868, N-{2-fluoro-4-[1-(2-fluorobenzoyl)piperidin-4-yl]phenyl}-1-(pyridazin-4-yl)azetidine-3-carboxamide] the value was 2.29 nM; for `O=C(Nc1ccc(C2CCN(C(=O)c3ccccc3)CC2)cc1F)C1CN(c2ccnnc2)C1` [Example 869, N-[4-(1-benzoylpiperidin-4-yl)-2-fluorophenyl]-1-(pyridazin-4-yl)azetidine-3-carboxamide], 1.98 nM. Molecule `CC(C)(C)C(=O)N1CCC(c2ccc(NC(=O)C3CN(c4ccnnc4)C3)c(F)c2)CC1` [Example 870, N-{4-[1-(2,2-dimethylpropanoyl)piperidin-4-yl]-2-fluorophenyl}-1-(pyridazin-4-yl)azetidine-3-carboxamide] showed an IC50 of 3.2 nM. On the same count and under the same terms, for `CC(C)(C)CC(=O)N1CCC(c2ccc(NC(=O)C3CN(c4ccnnc4)C3)c(F)c2)CC1` [Example 871, N-{4-[1-(3,3-dimethylbutanoyl)piperidin-4-yl]-2-fluorophenyl}-1-(pyridazin-4-yl)azetidine-3-carboxamide] the value was 3.61 nM; for `O=C(Nc1ccc(C2CCN(C(=O)CCC(F)(F)F)CC2)cc1F)C1CN(c2ccnnc2)C1` [Example 872, N-{2-fluoro-4-[1-(4,4,4-trifluorobutanoyl)piperidin-4-yl]phenyl}-1-(pyridazin-4-yl)azetidine-3-carboxamide], 23.6 nM.

Test system in another test: not given
Test: not given
As to conditions: collagen induced arthritis; cited from earlier work.
As to `O=C(/C=C/c1cccnc1)NCCCCC1CCN(C(=O)c2ccccc2)CC1` [FK866], the “efficacy in animal models of arthritis” value was “efficacious”.

Another test concerns activated T cells.
Test: not given
To be noted: cited from earlier work.
In the case of `O=C(/C=C/c1cccnc1)NCCCCC1CCN(C(=O)c2ccccc2)CC1` [FK866], the “proliferation and apoptosis of activated T cells” value is “selectively block proliferation and induce apoptosis”.
